Data published in patent US7994140B2, “Classes of compounds that interact with GPCRs” (Alchemia Limited, priority 2002, dated 2011).

Target: T1, MC4 (Homo sapiens, UniProt P32245)
T1 construct: purchased Perkin Elmer BioSignal; host or cells: HEK 293
Test: GPCR radioligand binding (RLB) assay, melanocortin MC4, [125I]NDP-αMSH
Details: for MC4 inhibition at 10 micromolar: 10 micromolar compound, recombinant human receptor membranes (HEK 293)
Method: Recombinant human receptors expressed in HEK 293 cells were used for all experiments. Receptor membrane preparations were purchased from Perkin Elmer BioSignal. The labelled ligand used in somatostatin GPCR RLB assays was [^125I]SST-14 and in melanocortin assays was [^125I]NDP-αMSH. All assays were done in a 96-well plate format using either glass fiber filter mats or filter plates. All reagents purchased were of the highest quality.
Specific assay buffer, incubation and washing conditions were optimized for each receptor however they all followed the same general format. The procedures for both filter mat and filter plate formats are based on the receptor manufacturers recommendations or those described extensively in the literature. The procedures are briefly outlined below.
In assays where filter mats are used we incubate receptor membranes, assay buffer and [^125I] labelled ligand in 96 well microplates. Add compounds to incubation mixture and continue incubation for optimized period. Presoak Filter mat GF/B in 0.5% PEI for ˜2 hr at 4° C. On completion of assay mixture incubation add additional 100 μL/well of assay buffer immediately prior to filtration. Filter the assay mixture onto the GF/B filter mat using a cell harvester. Dry the filter mats prior to sealing them into a scintillation counting bag with scintillant. Radioactivity in each well is detected by liquid scintillation counting.
In assays where filter plates are used Multiscreen glass fiber filter plates (Millipore, Cat No MAFCNOB10) are precoated with 0.5% PEI for ˜2 hr at 4° C. All wells are then washed with 200 µl/well assay buffer and filtered using the Multiscreen Separation System. Subsequently receptor membranes, assay buffer and labelled ligands are added to the wells and equilibrated. Compounds for testing are then added to the mixture and incubation is continued for an optimized time. Plates are then put into the Multiscreen Separation System and the assay mixture is filtered through the plate under vacuum. Each well is then washed several times with assay buffer. Plates are then dried prior to putting sealing tape onto the bottom of the plate. Scintillant is added to each well and radioactivity measured by liquid scintillation counting.
Raw data was analysed according to standard methods using either GraphPad Prism software or IDDBS ActivityBase software.

T1 sequence (P32245 whole entry): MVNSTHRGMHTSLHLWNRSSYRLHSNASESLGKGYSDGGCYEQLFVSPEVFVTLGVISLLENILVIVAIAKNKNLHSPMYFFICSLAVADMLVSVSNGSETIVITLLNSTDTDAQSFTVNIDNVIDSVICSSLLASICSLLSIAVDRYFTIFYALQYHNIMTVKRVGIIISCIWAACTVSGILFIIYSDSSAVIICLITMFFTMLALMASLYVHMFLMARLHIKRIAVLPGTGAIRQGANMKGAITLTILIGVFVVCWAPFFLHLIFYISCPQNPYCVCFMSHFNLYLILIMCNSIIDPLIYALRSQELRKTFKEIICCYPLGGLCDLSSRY

SMILES: N=C(N)NCC(=O)N[C@H]1C(OCc2ccccc2)O[C@H](COCc2ccccc2)[C@@H](O)[C@@H]1OCc1ccc2ccccc2c1 (stereo partly drawn) [Compound 438]
- MC4 Inhibition at 4.0 Micromolar (Example Library 12): + (Indicates inhibition greater than . . . 50%)

SMILES: CSC1OC(COC(=O)c2c[nH]c3ccccc23)C(O)C(OCc2cccc(N)c2)C1NCc1ccc(Cl)cc1 (stereo not drawn) [Compound 314]
- MC4 inhibition at 10 micromolar: + (Indicates inhibition greater than . . . 50%)

SMILES: NCCCC(=O)NC1C(OCc2ccccc2)OC(COCc2ccc(Cl)cc2)C(O)C1OCc1ccc2ccccc2c1 (stereo not drawn) [Compound 410]
- MC4 Inhibition at 4.0 Micromolar (Example Library 11): + (Indicates inhibition greater than . . . 50%)

SMILES: N=C(N)NCC(=O)N[C@H]1C(OCc2ccc(-c3ccccc3)cc2)O[C@H](COCc2ccccc2)[C@@H](O)[C@H]1OCc1ccc(Cl)cc1 (stereo partly drawn) [Compound 464]
- MC4 Inhibition at 4.0 Micromolar (Example Library 13): + (Indicates inhibition greater than . . . 50%)

SMILES: NCCC(=O)NC1C(OCc2ccc3ccccc3c2)OC(COCc2ccc(Cl)cc2)C(O)C1OCc1ccccc1 (stereo not drawn) [Compound 421]
- MC4 Inhibition at 4.0 Micromolar (Example Library 11): + (Indicates inhibition greater than . . . 50%)

SMILES: N=C(N)NCCC(=O)N[C@H]1C(OCc2ccccc2)O[C@H](COCc2ccc(Cl)cc2)[C@@H](O)[C@@H]1OCc1ccc(Cl)cc1 (stereo partly drawn) [Compound 451]
- MC4 Inhibition at 4.0 Micromolar (Example Library 12): + (Indicates inhibition greater than . . . 50%)

SMILES: NCCC(=O)N[C@H]1C(OCc2ccc3ccccc3c2)O[C@H](COCc2ccccc2)[C@@H](O)[C@@H]1OCc1ccccc1 (single isomer, unassigned) [Compound 362]
- MC4 Inhibition at 4.0 Micromolar (Example Library 10): + (Indicates inhibition greater than . . . 50%)

SMILES: NCCC(=O)NC1C(OCc2ccccc2)OC(COCc2ccc3ccccc3c2)C(O)C1OCc1ccc(Cl)cc1 (stereo not drawn) [Compound 397]
- MC4 Inhibition at 4.0 Micromolar (Example Library 11): + (Indicates inhibition greater than . . . 50%)

SMILES: N=C(N)NCC(=O)N[C@H]1C(OCc2ccccc2)O[C@H](COCc2ccc3ccccc3c2)[C@@H](O)[C@@H]1OCc1ccc(Cl)cc1 (stereo partly drawn) [Compound 432]
- MC4 Inhibition at 4.0 Micromolar (Example Library 12): + (Indicates inhibition greater than . . . 50%)

SMILES: CO[C@H]1[C@H](O)[C@@H](COCc2ccc(-c3ccccc3)cc2)OC(OCCc2ccccc2)[C@@H]1NC(=O)CCNC(=N)N (stereo partly drawn) [Compound 97]
- MC4 inhibition at 10 micromolar: + (Indicates inhibition greater than . . . 50%)

SMILES: CO[C@H]1[C@H](O)[C@@H](COCc2ccc(-c3ccccc3)cc2)OC(OCc2cccc(O)c2)[C@@H]1NC(=O)CCCN (stereo partly drawn) [Compound 114]
- MC4 inhibition at 10 micromolar: + (Indicates inhibition greater than . . . 50%)

SMILES: COC1C(O)C(COCc2ccc3ccccc3c2)OC(OCc2ccc3ccccc3c2)C1NC(=O)CNC(=N)N (stereo not drawn) [Compound 71]
- MC4 inhibition at 10 micromolar: + (Indicates inhibition greater than . . . 50%)

SMILES: CO[C@H]1[C@H](O)[C@@H](COCc2ccc3ccccc3c2)OC(OCc2cccc(O)c2)[C@@H]1NC(=O)CCCNC(=N)N (stereo partly drawn) [Compound 117]
- MC4 inhibition at 10 micromolar: + (Indicates inhibition greater than . . . 50%)

SMILES: N=C(N)NCCC(=O)N[C@H]1C(OCc2ccccc2)O[C@H](COCc2ccc(Cl)cc2)[C@@H](O)[C@@H]1OCc1ccc2ccccc2c1 (stereo partly drawn) [Compound 456]
- MC4 Inhibition at 4.0 Micromolar (Example Library 12): + (Indicates inhibition greater than . . . 50%)

SMILES: CSC1O[C@H](COCc2ccccc2)[C@@H](O)[C@H](OCc2cccc(N)c2)[C@H]1NC(=O)c1c[nH]c2ccccc12 (stereo partly drawn) [Compound 318]
- MC4 inhibition at 10 micromolar: + (Indicates inhibition greater than . . . 50%)

SMILES: NCCCC(=O)N[C@H]1C(OCc2ccc3ccccc3c2)O[C@H](COCc2ccc3ccccc3c2)[C@@H](O)[C@@H]1OCc1ccccc1 (single isomer, unassigned) [Compound 372]
- MC4 Inhibition at 4.0 Micromolar (Example Library 10): + (Indicates inhibition greater than . . . 50%)

SMILES: CC(=O)N[C@H]1C(NC(=O)CCN)O[C@H](CO)[C@@H](O)[C@@H]1OCc1ccc(C)cc1 (stereo partly drawn) [Compound 499]
- MC4 Inhibition at 1.0 Micromolar (1.0 micromolar compound): + (Indicates inhibition greater than . . . 50%)

SMILES: CO[C@H]1[C@H](O)[C@@H](COCc2ccc(-c3ccccc3)cc2)OC(OCCc2ccccc2)[C@@H]1NC(=O)CNC(=N)N (stereo partly drawn) [Compound 96]
- MC4 inhibition at 10 micromolar: + (Indicates inhibition greater than . . . 50%)
